Counter-ions that a name gives are not always drawn. Like-named read-outs stand apart in the source and are kept apart here.
Legend:
[1] = molecular target: T1, Recombinant Homo sapiens AChE (Homo sapiens, UniProt P22303); experiment: biochemical; type: biochemical
T1 construct: made in house
Procedure: The training set of 18 compounds was experimentally evaluated for their ability to inhibit the enzymatic activity of AChE (Table 1 and Online Resource 1 for experimental details).
Reco mbinant Homo sapiens AChE was expressed according to previously described methods [ 6,7]. The enzymatic activit y wa s measured usi ng t he Ell ma n assa y [ 8] adapted to a 96-well for mat. The final assay volume was 200 µ L a nd all measurements were performed in 0.2 mM 5,5’-D ithiobis(2-nitrobenzoic acid) and 1 mM acethylthioc holine iodide in 0.1 M phosphate buffer pH 8.0. All measurements were perfor med in triplicates and the data was fitted to a (log)i nhibit or vs. response four parameters equation using GraphPad Prism (5.0). T he obtained IC50-values were recalculated to pIC50 according to pIC50=-log(IC50) in molar (M) concentration.

[2] = molecular target: T1, Recombinant Homo sapiens AChE; settings: test set Set3 (Table S15); cited from earlier work
[3] = test sets Set1 and Set2 (Table S15), synthesized and biologically evaluated here
[4] = training set, triplicates, pH 8.0

T1 sequence (P22303 32-614): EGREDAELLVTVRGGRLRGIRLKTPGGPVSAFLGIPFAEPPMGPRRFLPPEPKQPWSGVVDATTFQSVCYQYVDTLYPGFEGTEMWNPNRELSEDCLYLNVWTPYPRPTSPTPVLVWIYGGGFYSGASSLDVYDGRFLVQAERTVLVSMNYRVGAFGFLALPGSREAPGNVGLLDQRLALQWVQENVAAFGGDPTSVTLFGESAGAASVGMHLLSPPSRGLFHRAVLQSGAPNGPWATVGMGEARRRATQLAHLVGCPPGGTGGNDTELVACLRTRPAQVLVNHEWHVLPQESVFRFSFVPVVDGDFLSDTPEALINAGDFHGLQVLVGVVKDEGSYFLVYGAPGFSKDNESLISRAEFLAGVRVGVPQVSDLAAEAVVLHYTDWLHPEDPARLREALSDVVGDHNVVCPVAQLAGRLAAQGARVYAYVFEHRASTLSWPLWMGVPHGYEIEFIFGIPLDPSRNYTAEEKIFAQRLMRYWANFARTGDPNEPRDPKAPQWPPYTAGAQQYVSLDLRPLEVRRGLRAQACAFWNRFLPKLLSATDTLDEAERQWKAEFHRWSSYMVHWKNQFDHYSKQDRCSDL

Row | SMILES | IC50 [1, 3] [µM] | IC50 [1, 4] [µM] | other results
1 | Cc1ccc(C(=O)NCCC[n+]2ccccc2)cc1[N+](=O)[O-] [compound 27] | 4.9 |  | 
2 | CCN(CC)CCCNC(=O)c1ccc(C)c([N+](=O)[O-])c1 [compound 6] |  | 12.8 | 
3 | O=[N+]([O-])c1ccccc1S(=O)(=O)NCC[n+]1ccsc1 [compound 30] | 12 |  | 
4 | O=S(=O)(Cc1ccc(Cl)cc1)NCCCN1CCCCC1 [compound 2] |  | 445 | 
5 | O=C(NCCN1CCNCC1)c1sc2ccccc2c1Cl [compound 16] |  | 109 | 
6 | O=C(COc1ccccc1)Nc1ccc(CN2CCCCC2)cc1 [compound 39] | 1.3 |  | 
7 | COc1ccc(N2Cc3ccccc3C2=O)cc1S(=O)(=O)NCCN1CCOCC1 [compound 7] |  | 4250 | 
8 | O=C(NCCN1CCOCC1)c1ccc(-c2ccc(Cl)cc2)o1 [compound 11, 5-(4-Chlorophenyl)-N-(2-morpholinoethyl)furan-2-carboxamide] |  | 2430 | 
9 | Cc1ccc(C(=O)NCC[n+]2ccccc2)cc1[N+](=O)[O-] [compound 28] | 10 |  | 
10 | Cc1ccc(S(=O)(=O)NCCCN2CCCCC2)cc1[N+](=O)[O-] [compound 5] |  | 101 | 
11 | O=C(NCCC[n+]1ccccc1)c1sc2ccccc2c1Cl [compound 14, 1-(3-[(3-Chloro-benzo[b]thiophen-2-carbonyl)-amino] -propyl)-pyridinium chloride] |  | 6.6 | 
12 | O=C(Cc1ccc(Cl)cc1)NCC[n+]1ccccc1 [compound 13, 1-(2-[2-(4 -Chloro-phenyl)-acetylamino]-ethyl)-pyridinium bromide] |  | 25 | 
13 | O=S(=O)(Cc1ccc(C(F)(F)F)cc1)NCCCN1CCNCC1 [compound 17] |  | 4200 | 
14 | COc1ccc(N2Cc3ccccc3C2=O)cc1S(=O)(=O)NCCCN(C)C [compound 8] |  | 12 | 
15 | O=C(CCc1ccc(Cl)cc1Cl)Nc1ccc(CN2CCCCC2)cc1 [compound 42] | 0.7 |  | 
16 | Cc1ccc(S(=O)(=O)NCCN(C)C)cc1[N+](=O)[O-] [compound 4] |  | 69.5 | 
17 | O=C(Cc1ccc(Cl)cc1)NCCCN1CCOCC1 [compound 3] |  | > 1000 | 
18 | Cc1ccc(C(=O)NCCCN(C)C)cc1[N+](=O)[O-] [compound 29] | 19 |  | 
19 | O=S(=O)(Cc1ccc(C(F)(F)F)cc1)NCCC[n+]1ccccc1 [compound 15] |  | 22.2 | 
20 | O=C(COc1ccc(Cl)cc1)Nc1ccc(CN2CCCCC2)cc1 [compound 37] | 0.6 |  | 
21 | O=C(NCCCN1CCNCC1)c1ccc(-c2ccc(Cl)cc2)o1 [compound 18] |  | 136 | 
22 | CCN(CC)CCNS(=O)(=O)c1cccc(OC)c1 [compound 60] |  |  | IC50 [2]: 10 µM
23 | Cc1cc(C)c(OCC(=O)Nc2ccc(CN3CCCCC3)cc2)c(Cl)c1 [compound 38] | 1.3 |  | 
24 | O=C(NCC[n+]1ccsc1)c1cc2cc([N+](=O)[O-])ccc2s1 [compound 31] | 2.6 |  | 
25 | CCN(CC)Cc1ccc(NC(=O)COc2cc(C)ccc2C)cc1 [compound 41] | 8.1 |  | 
26 | O=C(Cc1ccc(C(F)(F)F)cc1)NCCN1CCCCC1 [compound 10, N-[2-(Piperidin-1-yl)-ethyl] -2-(4-trifluoromethyl-phenyl) -acetamide] |  | 323 | 
27 | CCN(CC)CCNS(=O)(=O)Cc1ccc(Cl)cc1 [compound 1] |  | 13 | 
28 | CN(C)CCCNC(=O)c1sc2ccccc2c1Cl [compound 9, 3-Chloro-benzo[b]thiophene-2-N-(3-dimethylamino-propyl)-carboxamide hydrochlor ide] |  | 67.7 | 
29 | O=C(COc1ccccc1Cl)Nc1ccc(CN2CCCCC2)cc1 [compound 40] | 0.6 |  | 
30 | CCN(CC)CCCNC(=O)c1ccc(-c2ccc(Cl)cc2)o1 [compound 12, 5-(4-Chloro-phenyl)-furan-2-N-[3-(diethylamino)-propyl]-carboxamide hydrochloride] |  | 78 | 
